This assay deals with human rhinovirus (HRV) serotypes, panel T. The assay is described as follows: MIC50/MIC80 over panel T of fifteen human rhinovirus serotypes (HeLa cell CPE). It counts as cell-based. To be noted: for MIC50: Human rhinovirus sp., 72 h, minimum concentration required to inhibit 50% of the tested serotypes; for MIC80: minimum concentration required to inhibit 80% of the tested serotypes. The procedure:
They are useful in inhibiting virus replication in vitro and are primarily active against picornaviruses, including enteroviruses, echovirus and coxsackie virus, especially rhinoviruses. […] The test procedure used was as follows: The MIC values were determined by an automated tissue culture infectious dose 50% (TCID-50) assay. HeLa cells in monoloyers in 96-well cluster plates were infected with a dilution of virus which had been shown empirically to produce 80% to 100% cytopathic effect (CPE) in 3 days in the absence of drug. The compound to be tested was serially diluted through 10, 2-fold cycles and added to the infected cells. After a 3 day incubation at 33° C. and 2.5% carbon dioxide, the cells were fixed with a 5% solution of glutaraldehyde followed by staining with a 0.25% solution of crystal violet in water. The plates were then rinsed, dried, and the amount of stain remaining in the well (a measure of intact cells) was quantitated with an optical density reader. The MIC was determined to be the concentration of compound which protected 50% of the cells from virus-induced CPE relative to an untreated virus control.
In the above test procedures, representative compounds of formula I were tested against some the serotypes from either a panel of fifteen human rhinovirus (HRV) serotypes, (noted in the table as panel T) namely, HRV-2, -14, -1A, -1B, -6, -21, -22, -15, -25, -30, -50, -67, -89, -86 and -41 or against some of the serotypes from a panel of 10 human rhinovirus serotypes namely HRV-3, -4, -5, -9, -16, -18, -38, -66, -75 and -61, (noted in the table as panel B) and the MIC value, expressed in micrograms per milliliter ([…]), for each rhinovirus serotype was determined for each virus, example 1e is given as an example of the data. Then MIC50 and MIC80 values, which are the minimum concentrations of the compound required to inhibit 50% and 80%, respectively, of the tested serotypes were determined.
The following Table gives the test results for representative compounds of the invention. The panel of viruses used in the test appears before the MIC80 and MIC50 figure and the number of serotypes which the compound is tested against (N) is indicated after the MIC80 and MIC50 figure.

We go through 24 compounds from patent US5464848A, “1,2,4-oxadiazolyl-phenoxyalkylisoxazoles and their use as antiviral agents” (Sterling Winthrop Inc., priority 1993, dated 1995).

Converted amounts (≈) assume the structure as drawn.

Compound `Cc1cc(-c2noc(C(F)(F)F)n2)cc(C)c1OCCCc1cc(CO)no1` [Example 34d, 5-{3-[2,6-Dimethyl-4-(5-trifluoromethyl-1,2,4-oxadiazol-3-yl)phenoxy]propyl}-3-(hydroxymethyl) isoxazole] had an MIC50 of 0.07 µg/mL (≈ 0.176 µM) and an MIC80 of 0.042 µg/mL (≈ 0.106 µM). In the case of `Cc1cc(CCCOc2c(C)cc(-c3noc(CI)n3)cc2C)on1` [Example 41, 5-{3-[2,6-Dimethyl-4-(5-(iodomethyl)-1,2,4-oxadiazol-3-yl) -phenoxy]propyl}-3-methylisoxazole], the MIC50 came to 99 µg/mL (≈ 218 µM) and the MIC80 is 99 µg/mL (≈ 218 µM). `Cc1cc(CCCOc2c(C)cc(-c3noc(=N)[nH]3)cc2C)on1` [Example 15, 5-{3-[4-(5-Imino-4,5-dihydro-1,2,4-oxadiazol-3-yl)-2,6-dimethylphenoxy]propyl}-3-methylisoxazole]: the MIC50 amounted to 99 µg/mL (≈ 301 µM) and the MIC80 is 99 µg/mL (≈ 301 µM). As for `COCc1cc(CCCOc2c(C)cc(-c3noc(C(F)(F)F)n3)cc2C)on1` [Example 21, 5-{3-[2,6-Dimethyl-4-(5-trifluoromethyl-1,2,4-oxadiazol-3-yl)phenoxy]propyl}-3-(methoxymethyl) -isoxazole], the MIC50 was found to be 1.56 µg/mL (≈ 3.8 µM) and the MIC80 worked out at 0.0575 µg/mL (≈ 0.14 µM). Regarding `COCc1cc(CCCOc2c(C)cc(-c3noc(C4CC4)n3)cc2C)on1` [Example 26], the MIC50 turned out to be 0.183 µg/mL (≈ 0.477 µM) and the MIC80 is 0.038 µg/mL (≈ 0.0991 µM).

On to `CCOCc1cc(CCCOc2c(C)cc(-c3noc(C(F)(F)F)n3)cc2C)on1` [Example 22, 5-{3-[2,6-Dimethyl-4-(5-trifluoromethyl-1,2,4-oxadiazol-3-yl)phenoxy]propyl}-3-(ethoxymethyl)-isoxazole], for which the MIC50 amounted to 0.729 µg/mL (≈ 1.71 µM) and the MIC80 amounted to 0.087 µg/mL (≈ 0.205 µM). On to `Cc1cc(-c2noc(C3CC3)n2)cc(C)c1OCCCc1cc(OCCO)no1` [Example 44, 5-{3-[4-(5-Cyclopropyl-1,2,4-oxadiazol-3-yl)-2,6-dimethylphenoxy]propyl}-3-(2-hydroxyethoxy)isoxazole], for which the MIC80 turned out to be 0.385 µg/mL (≈ 0.964 µM). `Cc1cc(CCCOc2ccc(-c3noc(C4CCC4)n3)cc2)on1` [Example 54e, 5-{3-[4-(5-cyclobutyl-1,2,4-oxadiazol-3-yl)phenoxy]propyl}-3-methylisoxazole]: the MIC50 was 99 µg/mL (≈ 292 µM) and the MIC80 came to 0.1045 µg/mL (≈ 0.308 µM). On the same counts, the results for `Cc1cc(-c2noc(C3CC3)n2)cc(C)c1OCCCc1cc(O)no1` [Example 36d, 5-{3-[4-(5-cyclopropyl-1,2,4-oxadiazol-3-yl)-2,6-dimethylphenoxy]propyl}-3-hydroxyisoxazole] are 1.32 µg/mL (≈ 3.72 µM) and 0.371 µg/mL (≈ 1.04 µM). The compound `Cc1cc(CCCOc2c(C)cc(-c3noc(C4CC4)n3)cc2C)on1` [Example 4, 5-{3-[4-(5-Cyclopropyl-1,2,4-oxadiazol-3-yl) -2,6-dimethylphenoxy]propyl}-3-methylisoxazole] yielded an MIC50 of 3.15 µg/mL (≈ 8.9 µM) and an MIC80 of 0.057 µg/mL (≈ 0.161 µM). `Cc1cc(CCCOc2c(C)cc(-c3nc(N)no3)cc2C)on1` [Example 47] yielded an MIC50 of 5.14 µg/mL (≈ 15.7 µM) and an MIC80 of 0.057 µg/mL (≈ 0.174 µM).

`CC(=O)OCc1nc(-c2cc(C)c(OCCCc3cc(C)no3)c(C)c2)no1` [Example 9, 5-{3-[2,6-Dimethyl-4-(5-methylcarbonyloxy-methyl-1,2,4-oxadiazol-3-yl)phenoxy]propyl}-3-methylisoxazole] showed an MIC50 of 0.279 µg/mL (≈ 0.724 µM) and an MIC80 of 0.141 µg/mL (≈ 0.366 µM). Compound `Cc1cc(-c2noc(C(F)(F)F)n2)cc(C)c1OCCCc1cc(C(=O)O)no1` [Example 56e] returned an MIC50 of 99 µg/mL (≈ 241 µM) and an MIC80 of 5.304 µg/mL (≈ 12.9 µM). `CCc1cc(CCCOc2c(C)cc(-c3noc(C(F)(F)F)n3)cc2C)on1` [Example 28c, 5-{3-[2,6-Dimethyl-4-(5-trifluoromethyl-1,2,4-oxadiazol-3-yl)phenoxy]propyl}-3-ethylisoxazole] came in with an MIC50 of 0.278 µg/mL (≈ 0.703 µM) and an MIC80 of 0.119 µg/mL (≈ 0.301 µM). Regarding `Cc1cc(CCCOc2c(C)cc(-c3noc(N(C)C)n3)cc2C)on1` [Example 19, 5-{3-[2,6-Dimethyl-4-(5-dimethylamino-1,2,4-oxadiazol-3-yl)-phenoxy]propyl}-3-methylisoxazole], the MIC50 turned out to be 0.285 µg/mL (≈ 0.8 µM) and the MIC80 came to 0.085 µg/mL (≈ 0.238 µM). Compound `COc1nc(-c2cc(C)c(OCCCc3cc(C)no3)c(C)c2)no1` [Example 16, 5-{3-[2,6-Dimethyl-4-(5-methoxy-1,2,4-oxadiazol-3-yl)phen-oxy]propyl}-3-methylisoxazole] showed an MIC50 of 0.135 µg/mL (≈ 0.393 µM) and an MIC80 of 0.036 µg/mL (≈ 0.105 µM). Compound `Cc1ccc(S(=O)(=O)OCc2nc(-c3cc(C)c(OCCCc4cc(C)no4)c(C)c3)no2)cc1` [Example 42, 5-{3-[2,6-Dimethyl-4-(5-(4-methylphenylsulfonyloxymethyl) -1,2,4-oxadiazol-3-yl)phenoxy]propyl}-3-methylisoxazole] came in with an MIC50 of 99 µg/mL (≈ 199 µM) and an MIC80 of 99 µg/mL (≈ 199 µM). Consider `Cc1cc(CCCOc2c(C)cc(-c3noc(C(Cl)(Cl)Cl)n3)cc2C)on1` [Example 12, 5-{3-[2,6-Dimethyl-4-(5-trichloromethyl-1,2,4-oxadiazol-3-yl)-phenoxy]propyl}-3-methylisoxazole], for which the MIC50 stood at 2.94 µg/mL (≈ 6.83 µM) and the MIC80 worked out at 0.662 µg/mL (≈ 1.54 µM).

Regarding `Cc1cc(CCCOc2c(C)cc(-c3noc(CCl)n3)cc2C)on1` [Example 10, 5-{3-[4-(5-Chloromethyl-1,2,4-oxadiazol-3-yl) -2,6-dimethylphenoxy]propyl}-3-methylisoxazole], the MIC50 came out at 0.279 µg/mL (≈ 0.771 µM) and the MIC80 turned out to be 0.141 µg/mL (≈ 0.39 µM). `Cc1cc(CCCOc2c(C)cc(-c3nc(C4CC4)no3)cc2C)on1` [Example 45l, 5-{3-[2,6-Dimethyl-4,(5-cyclopropyl-1,2,4-oxadiazol-3-yl)phenoxy]propyl}-3-methylisoxazole] returned an MIC50 of 0.558 µg/mL (≈ 1.58 µM) and an MIC80 of 0.153 µg/mL (≈ 0.433 µM). For `CCc1cc(CCCOc2c(C)cc(-c3noc(C4CC4)n3)cc2C)on1` [Example 25, 5-{3-[4-(5-Cyclopropyl-1,2,4-oxadiazol-3-yl) -2,6-dimethylphenoxy]propyl}-3-ethylisoxazole], the MIC50 came out at 0.312 µg/mL (≈ 0.849 µM) and the MIC80 was 0.085 µg/mL (≈ 0.231 µM). In the case of `Cc1cc(CCCOc2c(C)cc(-c3noc(C#N)n3)cc2C)on1` [Example 39, 5-{3-[4-(5-Cyano-1,2,4-oxadiazol-3-yl)-2,6-dimethylphenoxy]-propyl}-3-methylisoxazole], the MIC50 amounted to 99 µg/mL (≈ 293 µM) and the MIC80 was 1.848 µg/mL (≈ 5.46 µM). `COCCc1cc(CCCOc2c(C)cc(-c3noc(C(F)(F)F)n3)cc2C)on1` [Example 29d, 5-{3-[2,6-Dimethyl-4-(5-trifluoromethyl-1,2,4-oxadiazol-3-yl)phenoxy]propyl}-3-(methoxyethyl)isoxazole]: the MIC50 turned out to be 0.172 µg/mL (≈ 0.404 µM) and the MIC80 amounted to 0.715 µg/mL (≈ 1.68 µM). In turn, `Cc1cc(-c2noc(C3CC3)n2)cc(C)c1OCCCc1cc(CO)no1` [Example 39c, 5-{3-[4-(5-Cyclopropyl-1,2,4-oxadiazol-3-yl)-2,6-dimethylphenoxy]propyl}-3-(hydroxymethyl) isoxazole] displayed an MIC50 of 0.187 µg/mL (≈ 0.506 µM) and an MIC80 of 0.035 µg/mL (≈ 0.0947 µM).
